# Laboratory results: patent US5530126A, “Process for the preparation of substituted 6-(pyrazol-3yl)-1,4-benzoxazin-3-ones” (Monsanto Company, priority 1994, dated 1996)
# Columns and labels:
# Assay type in all cases: in vivo
# Yellow nutsedge [1] = assay: Post-emergence herbicide test; settings: Cyperus, read-out: % plant inhibition (Yens); for inhibition at 1120 g/ha: 1.12 kg/ha
# Summary of the method: (§1)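 Rating of injury as % inhibition against control took place at ~11 days (10–14), and sometimes at ~25 days (24–28), following atomizer application (170.3 kPa, 1870 L/Ha, ~0.4% v/v emulsifier) to greenhouse plants aged 2–3 weeks.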
# Seedling johnsongrass [2] = assay: Post-emergence herbicide test; settings: Sorghum halepense, read-out: % plant inhibition (Sejg); for inhibition at 1120 g/ha: 1.12 kg/ha
# Summary of the method: as §1
# Velvetleaf [3] = assay: Post-emergence herbicide test; settings: Abutilon theophrasti, read-out: % plant inhibition (Vele); for inhibition at 1120 g/ha: 1.12 kg/ha
# Summary of the method: as §1
# Cocklebur [4] = assay: Post-emergence herbicide test; settings: Xanthium strumarium, read-out: % plant inhibition (Cobu); for inhibition at 1120 g/ha: 1.12 kg/ha
# Summary of the method: as §1
# Downy Brome [5] = assay: Post-emergence herbicide test; settings: Bromus tectorum, read-out: % plant inhibition (Dobr); for inhibition at 1120 g/ha: 1.12 kg/ha
# Summary of the method: as §1
# Annual bluegrass [6] = assay: Post-emergence herbicide test; settings: read-out: % plant inhibition (Anbg); for inhibition at 1120 g/ha: 1.12 kg/ha
# Summary of the method: as §1
# Indian Mustard [7] = assay: Post-emergence herbicide test; settings: Brassica juncea, read-out: % plant inhibition (Inmu); for inhibition at 1120 g/ha: 1.12 kg/ha
# Summary of the method: as §1
# Morningglory [8] = assay: Post-emergence herbicide test; settings: Ipomoea, read-out: % plant inhibition (Mogl); for inhibition at 1120 g/ha: 1.12 kg/ha
# Summary of the method: as §1
# Barnyardgrass [9] = assay: Post-emergence herbicide test; settings: Echinochloa crus-galli, read-out: % plant inhibition (Bygr); for inhibition at 1120 g/ha: 1.12 kg/ha
# Summary of the method: as §1
# Wild buckwheat [10] = assay: Post-emergence herbicide test; settings: Fallopia convolvulus, read-out: % plant inhibition (Wibw); for inhibition at 1120 g/ha: 1.12 kg/ha
# Summary of the method: as §1
# Yellow nutsedge [11] = assay: Pre-emergence herbicide test; settings: Cyperus, read-out: % plant inhibition (Yens); for inhibition at 1120 g/ha: 1.12 kg/ha
# Summary of the method: (§2)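 Percent growth inhibition rated roughly 11 days (range 10–14) after treatment, with pans held on a greenhouse bench and watered from below. Compound in acetone or water was sprayed onto the seed bed before covering with a layer of untreated topsoil.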
# Seedling johnsongrass [12] = assay: Pre-emergence herbicide test; settings: Sorghum halepense, read-out: % plant inhibition (Sejg); for inhibition at 1120 g/ha: 1.12 kg/ha
# Summary of the method: as §2
# Velvetleaf [13] = assay: Pre-emergence herbicide test; settings: Abutilon theophrasti, read-out: % plant inhibition (Vele); for inhibition at 1120 g/ha: 1.12 kg/ha
# Summary of the method: as §2
# Cocklebur [14] = assay: Pre-emergence herbicide test; settings: Xanthium strumarium, read-out: % plant inhibition (Cobu); for inhibition at 1120 g/ha: 1.12 kg/ha
# Summary of the method: as §2
# Downy Brome [15] = assay: Pre-emergence herbicide test; settings: Bromus tectorum, read-out: % plant inhibition (Dobr); for inhibition at 1120 g/ha: 1.12 kg/ha
# Summary of the method: as §2
# Annual bluegrass [16] = assay: Pre-emergence herbicide test; settings: read-out: % plant inhibition (Anbg); for inhibition at 1120 g/ha: 1.12 kg/ha
# Summary of the method: as §2
# Indian Mustard [17] = assay: Pre-emergence herbicide test; settings: Brassica juncea, read-out: % plant inhibition (Inmu); for inhibition at 1120 g/ha: 1.12 kg/ha
# Summary of the method: as §2
# Morningglory [18] = assay: Pre-emergence herbicide test; settings: Ipomoea, read-out: % plant inhibition (Mogl); for inhibition at 1120 g/ha: 1.12 kg/ha
# Summary of the method: as §2
# Barnyardgrass [19] = assay: Pre-emergence herbicide test; settings: Echinochloa crus-galli, read-out: % plant inhibition (Bygr); for inhibition at 1120 g/ha: 1.12 kg/ha
# Summary of the method: as §2
# Wild buckwheat [20] = assay: Pre-emergence herbicide test; settings: Fallopia convolvulus, read-out: % plant inhibition (Wibw); for inhibition at 1120 g/ha: 1.12 kg/ha
# Summary of the method: as §2
Structure (SMILES),inhibition at 1120 g/ha (Yellow nutsedge [1]) [%],inhibition at 1120 g/ha (Seedling johnsongrass [2]) [%],inhibition at 1120 g/ha (Velvetleaf [3]) [%],inhibition at 1120 g/ha (Cocklebur [4]) [%],inhibition at 1120 g/ha (Downy Brome [5]) [%],inhibition at 1120 g/ha (Annual bluegrass [6]) [%],inhibition at 1120 g/ha (Indian Mustard [7]) [%],inhibition at 1120 g/ha (Morningglory [8]) [%],inhibition at 1120 g/ha (Barnyardgrass [9]) [%],inhibition at 1120 g/ha (Wild buckwheat [10]) [%],inhibition at 1120 g/ha (Yellow nutsedge [11]) [%],inhibition at 1120 g/ha (Seedling johnsongrass [12]) [%],inhibition at 1120 g/ha (Velvetleaf [13]) [%],inhibition at 1120 g/ha (Cocklebur [14]) [%],inhibition at 1120 g/ha (Downy Brome [15]) [%],inhibition at 1120 g/ha (Annual bluegrass [16]) [%],inhibition at 1120 g/ha (Indian Mustard [17]) [%],inhibition at 1120 g/ha (Morningglory [18]) [%],inhibition at 1120 g/ha (Barnyardgrass [19]) [%],inhibition at 1120 g/ha (Wild buckwheat [20]) [%],further results
Cn1nc(C(F)(F)F)c(Cl)c1-c1ccc(Cl)cc1 [Compound 66],,,,,,,,,,,,,,,,,,,,,inhibition at 11210 g/ha (Yellow nutsedge [1]; 11.21 kg/ha): 0%; inhibition at 11210 g/ha (Seedling johnsongrass [2]; 11.21 kg/ha): 80%; inhibition at 11210 g/ha (Velvetleaf [3]; 11.21 kg/ha): 50%; inhibition at 11210 g/ha (Cocklebur [4]; 11.21 kg/ha): 0%; inhibition at 11210 g/ha (Downy Brome [5]; 11.21 kg/ha): 30%; inhibition at 11210 g/ha (Annual bluegrass [6]; 11.21 kg/ha): 0%; inhibition at 11210 g/ha (Indian Mustard [7]; 11.21 kg/ha): 30%; inhibition at 11210 g/ha (Morningglory [8]; 11.21 kg/ha): 70%; inhibition at 11210 g/ha (Barnyardgrass [9]; 11.21 kg/ha): 20%; inhibition at 11210 g/ha (Wild buckwheat [10]; 11.21 kg/ha): 100%; inhibition at 11210 g/ha (Yellow nutsedge [11]; 11.21 kg/ha): 0%; inhibition at 11210 g/ha (Seedling johnsongrass [12]; 11.21 kg/ha): 90%; inhibition at 11210 g/ha (Velvetleaf [13]; 11.21 kg/ha): 90%; inhibition at 11210 g/ha (Cocklebur [14]; 11.21 kg/ha): 20%; inhibition at 11210 g/ha (Downy Brome [15]; 11.21 kg/ha): 60%; inhibition at 11210 g/ha (Annual bluegrass [16]; 11.21 kg/ha): 50%; inhibition at 11210 g/ha (Indian Mustard [17]; 11.21 kg/ha): 50%; inhibition at 11210 g/ha (Morningglory [18]; 11.21 kg/ha): 100%; inhibition at 11210 g/ha (Barnyardgrass [19]; 11.21 kg/ha): 10%; inhibition at 11210 g/ha (Wild buckwheat [20]; 11.21 kg/ha): 90%
CCOC(=O)C(C)Oc1cc(-c2nn(C)c(C(F)(F)F)c2Cl)c(F)cc1Br (stereo not shown) [Compound 97],50,60,100,100,90,70,100,90,100,100,20,50,100,90,80,80,90,40,50,100,
Cn1nc(-c2cc(C(=O)OC3CCCCC3)c(Cl)cc2F)c(Cl)c1C(F)(F)F [Compound 134],20,100,100,100,100,100,100,100,100,100,0,40,70,30,70,50,60,20,10,90,
"Cn1nc(-c2cc(CO)c(Cl)cc2F)c(Cl)c1C(F)(F)F [Compound 122, 2-chloro-5-[4-chloro-1-methyl-5-(trifluoromethyl)-1H-pyrazol-3-yl]-4-fluorobenzenemethanol]",20,70,100,60,20,20,50,80,70,90,0,40,100,40,20,20,100,80,80,70,
Cn1nc(-c2cc(OCc3ccc(Cl)s3)c(Cl)cc2F)c(Cl)c1C(F)(F)F [Compound 252],20,100,100,100,100,90,100,100,90,100,0,60,20,30,60,30,10,40,20,10,
